Here are results for one molecule from patent US20060009426A1, “Pharmaceutical compositions comprising calcitriol and a clobetasol propionate” (GALDERMA RESEARCH & DEVELOPMENT, S.N.C., priority 2002, published 2006).

Experiment [1] relates to mouse ear oedema. The experiment in a line: Ear oedema in the delayed hypersensitivity model of mice sensitized with a hapten (oxazolone). The format is in vivo, Balb/c mice. The protocol: This test represents a reliable model for predicting the immunomodulatory properties of a product in a pathology of Th1 type such as psoriasis.
(§1) 8-week-old Balb/c mice are pretreated on the abdominal skin from day 1 to day 6 using product A or B, or A and B diluted in ethanol. On day 6, the mice are actively sensitized by the topical application of 50 mg of oxazolone (oxa) in ethanol onto the abdominal skin. On day 11, an application of 20 mg of oxa in ethanol is performed on the right ear.
Student's t test was used for the statistical analysis of the results.
The thickness of the ear is measured, using a micrometer, on day 11 (just before the application of oxazolone to the presensitized mice) and after 24 hours, on day 12. The ear oedema is expressed as the difference between the measurement of the thickness of the ear between day 12 and day 11. The values of the thickness of the ear are analyzed statistically using Student's t test.

In experiment [2] the test system is auricular ganglionic cells. Nature of the experiment: Count of the auricular ganglionic cells in oxazolone-sensitized mice. It counts as in vivo, Balb/c mice. To be noted: dose series, day 12, cells per animal. The protocol: as §1
On day 12, one day after the repeated application of the oxa, the animals were sacrificed by cervical dislocation. The ganglionic cells are collected and combined by experimental group. A cell suspension is prepared and the cells are then counted. The number of cells is expressed per animal.

With `CCC(=O)O[C@]1(C(=O)CCl)[C@@H](C)C[C@H]2[C@@H]3CCC4=CC(=O)C=C[C@]4(C)[C@@]3(F)[C@@H](O)C[C@@]21C` [product B, clobetasol propionate], in experiment [1] (clobetasol propionate alone at 0.01%, topical), the “efficacy on inflammation (ear oedema, FIGS. 1 and 2)” value was “moderate efficacy”. Moreover, the “effect of topical application on the intensity of mouse ear oedema (FIG. 1)” value in experiment [1] (dose series, topical pretreatment day 1 to day 6, oedema = ear thickness day 12 minus day 11) is reported as “dose-response effect”. Also, the “effect on the count of auricular ganglionic cells (FIG. 3)” value in experiment [2] is reported as “dose-response effect”.
